Source: ChEMBL document CHEMBL5154747, “Discovery of new carbonic anhydrase IX inhibitors as anticancer agents by toning the hydrophobic and hydrophilic rims of the active site to encounter the dual-tail approach” (Eur J Med Chem, 2022)

Key:
Format in all cases: functional
Conditions in all cases: read-out: GI
[1] = system: HL-60(TB); experiment: Anticancer activity against human HL-60(TB) cells assessed as cell growth inhibition at 10 uM incubated for 48 hrs by SRB assay relative to control
[2] = system: K562; experiment: Anticancer activity against human K562 cells assessed as cell growth inhibition at 10 uM incubated for 48 hrs by SRB assay relative to control
[3] = system: MOLT-4; experiment: Anticancer activity against human MOLT-4 cells assessed as cell growth inhibition at 10 uM incubated for 48 hrs by SRB assay relative to control
[4] = system: EKVX; experiment: Anticancer activity against human EKVX cells assessed as cell growth inhibition at 10 uM incubated for 48 hrs by SRB assay relative to control
[5] = system: HOP-62; experiment: Anticancer activity against human HOP-62 cells assessed as cell growth inhibition at 10 uM incubated for 48 hrs by SRB assay relative to control
[6] = system: NCI-H322M; experiment: Anticancer activity against human NCI-H322M cells assessed as cell growth inhibition at 10 uM incubated for 48 hrs by SRB assay relative to control
[7] = system: COLO 205; experiment: Anticancer activity against human COLO 205 cells assessed as cell growth inhibition at 10 uM incubated for 48 hrs by SRB assay relative to control
[8] = system: SF-295; experiment: Anticancer activity against human SF-295 cells assessed as cell growth inhibition at 10 uM incubated for 48 hrs by SRB assay relative to control
[9] = system: SNB-19; experiment: Anticancer activity against human SNB-19 cells assessed as cell growth inhibition at 10 uM incubated for 48 hrs by SRB assay relative to control
[10] = system: U-251; experiment: Anticancer activity against human U-251 cells assessed as cell growth inhibition at 10 uM incubated for 48 hrs by SRB assay relative to control
[11] = system: SK-MEL-28; experiment: Anticancer activity against human SK-MEL-28 cells assessed as cell growth inhibition at 10 uM incubated for 48 hrs by SRB assay relative to control
[12] = system: UACC-62; experiment: Anticancer activity against human UACC-62 cells assessed as cell growth inhibition at 10 uM incubated for 48 hrs by SRB assay relative to control
[13] = system: OVCAR-5; experiment: Anticancer activity against human OVCAR-5 cells assessed as cell growth inhibition at 10 uM incubated for 48 hrs by SRB assay relative to control
[14] = system: OVCAR-8; experiment: Anticancer activity against human OVCAR-8 cells assessed as cell growth inhibition at 10 uM incubated for 48 hrs by SRB assay relative to control
[15] = system: 786-0; experiment: Anticancer activity against human 786-0 cells assessed as cell growth inhibition at 10 uM incubated for 48 hrs by SRB assay relative to control
[16] = system: RXF 393; experiment: Anticancer activity against human RXF 393 cells assessed as cell growth inhibition at 10 uM incubated for 48 hrs by SRB assay relative to control
[17] = system: TK-10; experiment: Anticancer activity against human TK-10 cells assessed as cell growth inhibition at 10 uM incubated for 48 hrs by SRB assay relative to control
[18] = system: DU-145; experiment: Anticancer activity against human DU-145 cells assessed as cell growth inhibition at 10 uM incubated for 48 hrs by SRB assay relative to control
[19] = system: BT-549; experiment: Anticancer activity against human BT-549 cells assessed as cell growth inhibition at 10 uM incubated for 48 hrs by SRB assay relative to control
[20] = system: OVCAR-4; experiment: Anticancer activity against human OVCAR-4 cells assessed as cell growth inhibition at 10 uM incubated for 48 hrs by SRB assay relative to control

CCCCc1nc(/C=N/Nc2nc(Nc3ccccc3)nc(Nc3ccc(S(N)(=O)=O)cc3)n2)c(Cl)[nH]1
inhibition of growth at 10 µM [1]: < 10%
inhibition of growth at 10 µM [2]: 62%
inhibition of growth at 10 µM [3]: 58%
inhibition of growth at 10 µM [4]: < 10%
inhibition of growth at 10 µM [5]: < 10%
inhibition of growth at 10 µM [6]: < 10%
inhibition of growth at 10 µM [7]: 27%
inhibition of growth at 10 µM [8]: < 10%
inhibition of growth at 10 µM [9]: 69%
inhibition of growth at 10 µM [10]: 101%
inhibition of growth at 10 µM [11]: 28%
inhibition of growth at 10 µM [12]: 27%
inhibition of growth at 10 µM [13]: < 10%
inhibition of growth at 10 µM [14]: < 10%
inhibition of growth at 10 µM [15]: < 10%
inhibition of growth at 10 µM [16]: < 10%
inhibition of growth at 10 µM [17]: < 10%
inhibition of growth at 10 µM [18]: 15%
inhibition of growth at 10 µM [19]: 52%
inhibition of growth at 10 µM [20]: 19%

NS(=O)(=O)c1ccc(Nc2nc(N/N=C/c3ccccc3)nc(Nc3ccccc3)n2)cc1
inhibition of growth at 10 µM [1]: 40%
inhibition of growth at 10 µM [2]: 40%
inhibition of growth at 10 µM [3]: 58%
inhibition of growth at 10 µM [4]: 29%
inhibition of growth at 10 µM [5]: < 10%
inhibition of growth at 10 µM [6]: 27%
inhibition of growth at 10 µM [7]: 14%
inhibition of growth at 10 µM [8]: 27%
inhibition of growth at 10 µM [9]: < 10%
inhibition of growth at 10 µM [10]: 14%
inhibition of growth at 10 µM [11]: 27%
inhibition of growth at 10 µM [12]: 31%
inhibition of growth at 10 µM [13]: < 10%
inhibition of growth at 10 µM [14]: 20%
inhibition of growth at 10 µM [15]: 33%
inhibition of growth at 10 µM [16]: 87%
inhibition of growth at 10 µM [17]: < 10%
inhibition of growth at 10 µM [18]: 38%
inhibition of growth at 10 µM [19]: < 10%
inhibition of growth at 10 µM [20]: 15%

NS(=O)(=O)c1ccc(Nc2nc(N/N=C/CCc3ccccc3)nc(Nc3ccccc3)n2)cc1
inhibition of growth at 10 µM [1]: < 10%
inhibition of growth at 10 µM [2]: < 10%
inhibition of growth at 10 µM [3]: < 10%
inhibition of growth at 10 µM [4]: < 10%
inhibition of growth at 10 µM [5]: < 10%
inhibition of growth at 10 µM [6]: < 10%
inhibition of growth at 10 µM [7]: < 10%
inhibition of growth at 10 µM [8]: < 10%
inhibition of growth at 10 µM [9]: < 10%
inhibition of growth at 10 µM [10]: < 10%
inhibition of growth at 10 µM [11]: < 10%
inhibition of growth at 10 µM [12]: < 10%
inhibition of growth at 10 µM [13]: < 10%
inhibition of growth at 10 µM [14]: < 10%
inhibition of growth at 10 µM [15]: < 10%
inhibition of growth at 10 µM [16]: < 10%
inhibition of growth at 10 µM [17]: < 10%
inhibition of growth at 10 µM [18]: < 10%
inhibition of growth at 10 µM [19]: < 10%
inhibition of growth at 10 µM [20]: < 10%

Cc1ccc(/C=N/Nc2nc(Nc3ccccc3)nc(Nc3ccc(S(N)(=O)=O)cc3)n2)cc1
inhibition of growth at 10 µM [1]: 24%
inhibition of growth at 10 µM [2]: 43%
inhibition of growth at 10 µM [3]: 59%
inhibition of growth at 10 µM [4]: 21%
inhibition of growth at 10 µM [5]: 13%
inhibition of growth at 10 µM [6]: > 10%
inhibition of growth at 10 µM [7]: 16%
inhibition of growth at 10 µM [8]: 42%
inhibition of growth at 10 µM [9]: 22%
inhibition of growth at 10 µM [10]: 37%
inhibition of growth at 10 µM [11]: 24%
inhibition of growth at 10 µM [12]: < 10%
inhibition of growth at 10 µM [13]: 15%
inhibition of growth at 10 µM [14]: 30%
inhibition of growth at 10 µM [15]: 53%
inhibition of growth at 10 µM [16]: 102%
inhibition of growth at 10 µM [17]: < 10%
inhibition of growth at 10 µM [18]: 34%
inhibition of growth at 10 µM [19]: 23%
inhibition of growth at 10 µM [20]: 30%

COc1ccc(/C=N/Nc2nc(Nc3ccccc3)nc(Nc3ccc(S(N)(=O)=O)cc3)n2)cc1
inhibition of growth at 10 µM [1]: 16%
inhibition of growth at 10 µM [2]: 50%
inhibition of growth at 10 µM [3]: 55%
inhibition of growth at 10 µM [4]: 11%
inhibition of growth at 10 µM [5]: 19%
inhibition of growth at 10 µM [6]: 15%
inhibition of growth at 10 µM [7]: 23%
inhibition of growth at 10 µM [8]: 29%
inhibition of growth at 10 µM [9]: 13%
inhibition of growth at 10 µM [10]: 33%
inhibition of growth at 10 µM [11]: 21%
inhibition of growth at 10 µM [12]: 12%
inhibition of growth at 10 µM [13]: 14%
inhibition of growth at 10 µM [14]: 32%
inhibition of growth at 10 µM [15]: 26%
inhibition of growth at 10 µM [16]: 77%
inhibition of growth at 10 µM [17]: 20%
inhibition of growth at 10 µM [18]: 34%
inhibition of growth at 10 µM [19]: 14%
inhibition of growth at 10 µM [20]: 33%
